Data: ChEMBL document CHEMBL1153708, “Synthesis and evaluation of a thio analogue of duocarmycin SA” (Bioorg Med Chem Lett, 2009)
Activity calls are given as the source filed them. The rule behind the calls is not given here.

What follows are molecules tested on L1210 (assay: Cytotoxicity against mouse L1210 cells).
Type: functional, cell-based

Q: For COC(=O)c1cc2c(s1)C(=O)C=C1N(C(=O)OC(C)(C)C)C[C@@H]3C[C@@]123, which IC50 is on record?
A: The IC50 was 55 nM.

Q: With COC(=O)c1cc2c(s1)C(=O)C=C1N(C(=O)OC(C)(C)C)C[C@H]3C[C@]123 as the molecule, how does the IC50 read?
A: Its IC50 is 6 nM.

Q: With COC(=O)c1cc2c(s1)C(=O)C=C1N(C(=O)c3cc4cc(OC)c(OC)c(OC)c4[nH]3)C[C@@H]3C[C@@]123 as the molecule, how does the IC50 read?
A: The IC50 was 0.06 nM.

Q: With COC(=O)c1cc2c(s1)C(=O)C=C1N(C(=O)c3cc4cc(OC)c(OC)c(OC)c4[nH]3)C[C@H]3C[C@]123 as the molecule, how does the IC50 read?
A: Its IC50 is 0.007 nM.

Q: Which IC50 does the source give for COC(=O)c1cc2c([nH]1)C(=O)C=C1N(C(=O)OC(C)(C)C)C[C@@H]3C[C@@]123 here?
A: Its IC50 is 60 nM.

The molecules below were run on Nucleic Acid (assay: Induction of w794 DNA alkylation at 10 uM after 24 hrs by PAGE).
Type: nucleic-acid assay

Q: With COC(=O)c1cc2c(s1)C(=O)C=C1N(C(=O)c3cc4cc(OC)c(OC)c(OC)c4[nH]3)C[C@@H]3C[C@@]123 as the molecule, how does the Activity read?
A: Its Activity is “Active”.

Q: For COC(=O)c1cc2c([nH]1)C(=O)C=C1N(C(=O)c3cc4cc(OC)c(OC)c(OC)c4[nH]3)C[C@@H]3C[C@@]123, which Activity is on record?
A: Its Activity is “Active”.

Q: How did the Activity turn out when COC(=O)c1cc2c([nH]1)C(=O)C=C1N(C(=O)c3cc4cc(OC)c(OC)c(OC)c4[nH]3)C[C@H]3C[C@]123 was run?
A: Its Activity is “Active”.
